The results in this text go back to patent publication US9522907B2, “Anticancer agent and process for the preparation thereof” (COUNCIL OF SCIENTIFIC & INDUSTRIAL RESEARCH, priority 2014, dated 2016).

Common to all, as to assay: cells
What all share (format): cell-based

One test concerns Breast cancer cell lines. The note with it: Homo sapiens. From the text: (§1) The mean graph midpoint values of Log10 GI50 as well as Log10 LC50 for the compounds 2i, 5i and Hoechst 33258 (NSC-322921) is listed in Table 2.
(§2) Each cancer type represents the average of six to eight different cancer cell lines.

In a further test the test system is CNS cancer cell lines. The conditions noted are these: Homo sapiens.
Description: as §1, §2

The next test has as its system Colon cancer cell lines. The note with it: Homo sapiens; Colon; average of cell lines of the cancer type; read-out: Log10 GI50 mean graph midpoint (MG_MID) (converted).
Description: as §1, §2

Test [1] relates to Leukemia cancer cell lines. The conditions noted are these: Homo sapiens; Leukemia; average of cell lines of the cancer type; read-out: Log10 GI50 mean graph midpoint (MG_MID) (converted).
Description: as §1, §2

Test [2] deals with Melanoma cancer cell lines. The note with it: Homo sapiens; Melanoma; average of cell lines of the cancer type; read-out: Log10 GI50 mean graph midpoint (MG_MID) (converted).
Description: as §1, §2

Test [3] relates to Non-small-cell lung cancer cell lines. The note with it: Homo sapiens; Non-small-cell lung; average of cell lines of the cancer type; read-out: Log10 GI50 mean graph midpoint (MG_MID) (converted).
Description: as §1, §2

For test [4], the system named is Ovarian cancer cell lines. The conditions noted are these: Homo sapiens.
Description: as §1, §2

In test [5] the test system is Prostate cancer cell lines. The note with it: Homo sapiens.
Description: as §1, §2

A further test concerns Renal cancer cell lines. The conditions noted are these: Homo sapiens.
Description: as §1, §2

Setting [6] is: read-out: Log10 LC50 mean graph midpoint (MG_MID) (converted).

The structures appear in SMILES notation.

As a reminder, the GI50 is the concentration at which growth is held to half of that of the control. For the compound `CN1CCN(c2ccc3nc(-c4ccc5nc(-c6ccc(O)cc6)[nH]c5c4)[nH]c3c2)CC1` [Hoechst 33258, reference compound], the CC50 with Breast cancer cell lines (setting [6]) is 1450 µM; in the test on CNS cancer cell lines (setting [6]), 1320 µM; in [4] (setting [6]), 1200 µM; in [5] (setting [6]), 1410 µM; in the test with Renal cancer cell lines (setting [6]) it was 1260 µM. Further, the 50% growth inhibitory concentration (GI50) in the test with Breast cancer cell lines (Breast, average of cell lines of the cancer type, read-out: Log10 GI50 mean graph midpoint (MG_MID) (converted)) is 21.4 µM; in the test with CNS cancer cell lines (CNS, average of cell lines of the cancer type, read-out: Log10 GI50 mean graph midpoint (MG_MID) (converted)), 132 µM; in the test on Colon cancer cell lines, 79.4 µM; in test [1], 18.6 µM; in test [2] it was 25.1 µM; in [3], 115 µM. In addition, the GI50 in test [4] (Ovarian, average of cell lines of the cancer type, read-out: Log10 GI50 mean graph midpoint (MG_MID) (converted)) is 195 µM; in test [5] (Prostate, average of cell lines of the cancer type, read-out: Log10 GI50 mean graph midpoint (MG_MID) (converted)) it was 631 µM; in the test on Renal cancer cell lines (Renal, average of cell lines of the cancer type, read-out: Log10 GI50 mean graph midpoint (MG_MID) (converted)), 166 µM.
